Reference: ChEMBL document CHEMBL1132857, “Synthesis and binding studies of some epibatidine analogues” (Bioorg Med Chem Lett, 2000)

Legend:
Rattus norvegicus [1] = species: Rattus norvegicus; experiment: Inhibition of binding of [3H]-nicotine to neural nicotinic cholinergic receptor in rat brain membranes at 10e-5 M of compound concentration; Less active; type: cell membranes
[2] = target: 5-hydroxytryptamine receptor 1B (Rattus norvegicus) (UniProt P28564); experiment: Inhibition of [3H]5-HT binding to 5-hydroxytryptamine 1B receptor in rat striatum; Less active; type: tissue-based
5-hydroxytryptamine receptor 1B (Rattus norvegicus), sequence (P28564 whole entry): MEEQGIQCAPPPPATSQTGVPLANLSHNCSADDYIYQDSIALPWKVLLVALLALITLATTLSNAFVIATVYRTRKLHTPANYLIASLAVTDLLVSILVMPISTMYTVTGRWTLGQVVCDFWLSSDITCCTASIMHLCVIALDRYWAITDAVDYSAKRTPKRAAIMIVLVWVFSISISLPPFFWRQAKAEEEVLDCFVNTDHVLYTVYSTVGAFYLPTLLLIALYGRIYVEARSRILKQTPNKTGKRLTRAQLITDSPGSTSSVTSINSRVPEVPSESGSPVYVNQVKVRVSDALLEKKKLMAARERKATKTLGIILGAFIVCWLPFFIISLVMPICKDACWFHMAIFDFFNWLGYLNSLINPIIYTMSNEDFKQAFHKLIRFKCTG

[3] = target: T1, Muscarinic acetylcholine receptor M2 (Rattus norvegicus) (UniProt P10980); experiment: Inhibition of binding of [3H]quinuclidinyl benzilate to Muscarinic acetylcholine receptor M2 in rat heart atria at 10e-5 M of compound concentration; Less active
T1 sequence (whole entry): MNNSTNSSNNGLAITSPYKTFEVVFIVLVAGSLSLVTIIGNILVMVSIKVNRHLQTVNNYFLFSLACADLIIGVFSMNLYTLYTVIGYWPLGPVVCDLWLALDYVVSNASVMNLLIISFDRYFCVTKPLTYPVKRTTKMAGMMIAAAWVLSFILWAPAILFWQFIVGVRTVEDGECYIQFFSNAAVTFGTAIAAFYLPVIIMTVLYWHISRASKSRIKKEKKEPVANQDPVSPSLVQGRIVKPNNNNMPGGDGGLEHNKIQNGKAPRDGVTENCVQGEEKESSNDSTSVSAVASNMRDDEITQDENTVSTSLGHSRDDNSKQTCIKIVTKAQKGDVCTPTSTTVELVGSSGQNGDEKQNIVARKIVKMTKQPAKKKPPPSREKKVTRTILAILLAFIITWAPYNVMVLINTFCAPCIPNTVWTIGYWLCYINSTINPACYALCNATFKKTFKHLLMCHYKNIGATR

[4] = target: T2, 5-hydroxytryptamine receptor 1A (Rattus norvegicus) (UniProt P19327); experiment: Inhibition of [3H]8-hydroxy-2-dipropylamino-1,2,3,4-tetrahydronaphthalene binding to 5-hydroxytryptamine 1A receptor in hippocampus region of rat brain; Less active; type: tissue-based
T2 sequence (whole entry): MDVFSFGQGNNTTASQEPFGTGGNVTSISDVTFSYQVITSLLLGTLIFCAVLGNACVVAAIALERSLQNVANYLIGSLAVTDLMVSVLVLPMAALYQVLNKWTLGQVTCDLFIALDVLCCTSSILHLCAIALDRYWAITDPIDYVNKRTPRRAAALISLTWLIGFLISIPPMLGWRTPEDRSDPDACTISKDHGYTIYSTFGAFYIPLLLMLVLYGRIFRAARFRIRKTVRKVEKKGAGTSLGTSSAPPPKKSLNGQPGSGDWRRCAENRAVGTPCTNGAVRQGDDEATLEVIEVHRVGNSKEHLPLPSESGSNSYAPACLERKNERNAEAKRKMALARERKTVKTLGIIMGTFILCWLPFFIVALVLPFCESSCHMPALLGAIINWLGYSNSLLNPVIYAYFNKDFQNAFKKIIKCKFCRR

[5] = target: T3, Muscarinic acetylcholine receptor M1 (Rattus norvegicus) (UniProt P08482); experiment: Inhibition of binding of [3H]quinuclidinyl benzilate to Muscarinic acetylcholine receptor M1 in rat brain cortex at 10e-5 M of compound concentration; Less active; type: tissue-based
T3 sequence (whole entry): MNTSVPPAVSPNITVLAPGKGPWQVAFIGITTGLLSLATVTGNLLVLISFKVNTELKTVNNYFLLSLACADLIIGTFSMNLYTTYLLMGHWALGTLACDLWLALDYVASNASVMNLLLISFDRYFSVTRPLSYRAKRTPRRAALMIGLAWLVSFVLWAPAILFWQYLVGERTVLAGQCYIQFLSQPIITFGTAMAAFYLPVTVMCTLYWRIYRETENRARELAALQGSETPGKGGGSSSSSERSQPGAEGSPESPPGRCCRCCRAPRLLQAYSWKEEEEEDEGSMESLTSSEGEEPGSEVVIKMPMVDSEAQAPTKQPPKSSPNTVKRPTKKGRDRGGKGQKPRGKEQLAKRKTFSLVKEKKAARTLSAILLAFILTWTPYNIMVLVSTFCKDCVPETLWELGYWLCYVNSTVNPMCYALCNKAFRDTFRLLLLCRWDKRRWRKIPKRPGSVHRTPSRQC

[6] = Inhibition of binding of [3H]nicotine to neural nicotinic cholinergic receptor in rat brain membranes at 10e-5 M of compound concentration; type: cell membranes
[7] = target: T4, Muscarinic acetylcholine receptor M1 (Rattus norvegicus, UniProt P08482); experiment: Inhibition of binding of [3H]quinuclidinyl benzilate to Muscarinic acetylcholine receptor M1 in rat brain cortex at 10e-5 M of compound concentration; type: tissue-based
T4 sequence (P08482 whole entry): T3 sequence (whole entry)

[8] = target: T5, Muscarinic acetylcholine receptor M2 (Rattus norvegicus, UniProt P10980); experiment: Inhibition of binding of [3H]quinuclidinyl benzilate to Muscarinic acetylcholine receptor M2 in rat heart atria at 10e-5 M of compound concentration
T5 sequence (P10980 whole entry): T1 sequence (whole entry)

Rattus norvegicus [9] = species: Rattus norvegicus; experiment: Inhibition of binding of [3H]nicotine to neural nicotinic cholinergic receptor in rat brain membranes at 10e-5 M of compound concentration; Less active; type: cell membranes
[10] = target: T1, Muscarinic acetylcholine receptor M2 (Rattus norvegicus); experiment: Inhibition of binding of [3H]quinuclidinyl benzilate to Muscarinic acetylcholine receptor M2 in rat heart atria at 10e-5 M of compound concentration. Less active
[11] = target: T4, Muscarinic acetylcholine receptor M1; type: tissue-based, Brain
[12] = target: T5, Muscarinic acetylcholine receptor M2
[13] = target: T4, Muscarinic acetylcholine receptor M1; experiment: Inhibition of binding of [3H]quinuclidinyl benzilate to Muscarinic acetylcholine receptor M1 in rat brain cortex at 10e-5 M of compound concentration; Residual radioligand binding higher than 80%; type: tissue-based

SMILES	Activity (Rattus norvegicus [1])	Activity [2]	Activity [3]	Activity [4]	Activity [5]	IC50 [6]	further results
CN1C2CCC1CC(O)(c1ccc(Cl)nc1)C2 (stereo unspecified)	Weak activity	Weak activity	Weak activity	Weak activity	Weak activity		
CN1CCC(O)(c2ccc(Cl)nc2)CC1	Weak activity	Weak activity	Weak activity	Weak activity	Weak activity		
CCOC(=O)OC1(c2ccc(Cl)nc2)CCN(C)CC1	Weak activity	Weak activity	Weak activity	Weak activity	Weak activity		
CN1C2C=C(c3ccc(Cl)nc3)CC1CC2 (stereo unspecified)						1.8 nM	IC50 [7]: 2140 nM; IC50 [8]: 4180 nM
CN1C2CCC1CC(O)(c1ccc(Cl)cn1)C2 (stereo unspecified)		Weak activity		Weak activity	Weak activity		Activity (Rattus norvegicus [9]): Weak activity; Activity [10]: Weak activity
CCOC(=O)N1C2CCC1CC(O)(c1cccc(Cl)n1)C2 (stereo unspecified)		Weak activity	Weak activity	Weak activity	Weak activity		Activity (Rattus norvegicus [9]): Weak activity
CCOC(=O)N1C2CCC1CC(O)(c1ccc(Cl)cn1)C2 (stereo unspecified)		Weak activity	Weak activity	Weak activity	Weak activity		Activity (Rattus norvegicus [9]): Weak activity
CN1CCC=C(c2ccc(Cl)nc2)C1.O=C(O)/C=C\C(=O)O						2.2 nM	IC50 [11]: Not Active; IC50 [8]: 3510 nM
C[n+]1cccc(-c2ccc(Cl)nc2)c1.[I-]						77 nM	IC50 [11]: Not Active; IC50 [12]: Not Active
Clc1ccc(C2=CC3CCC(C2)N3)cn1.O=C(O)/C=C\C(=O)O (stereo unspecified)						1.7 nM	IC50 [13]: Not Active; IC50 [12]: Not Active
CN1C2C=C(c3cccc(Cl)n3)CC1CC2.O=C(O)/C=C\C(=O)O (stereo unspecified)						264 nM	IC50 [7]: 1850 nM; IC50 [12]: Not Active
Cl.Clc1cccc(C2=CC3CCC(C2)N3)n1 (stereo unspecified)						212 nM	IC50 [13]: Not Active; IC50 [12]: Not Active
CN1C2C=C(c3ccc(Cl)cn3)CC1CC2 (stereo unspecified)	Weak activity	Weak activity	Weak activity	Weak activity	Weak activity		
CCOC(=O)N1C2CCC1CC(O)(c1ccc(Cl)nc1)C2 (stereo unspecified)	Weak activity	Weak activity	Weak activity	Weak activity	Weak activity		
CN1CC=C(c2ccc(Cl)nc2)CC1.Cl						12.5 nM	IC50 [11]: Not Active; IC50 [12]: Not Active
Clc1ccc(-c2cccnc2)cn1		Weak activity	Weak activity	Weak activity	Weak activity		Activity (Rattus norvegicus [9]): Weak activity
CN1C2CCC1CC(O)(c1cccc(Cl)n1)C2 (stereo unspecified)	Weak activity	Weak activity	Weak activity	Weak activity	Weak activity		
